Drawing on BindingDB's records for doi:10.7270/Q2H70D5W (University of Pittsburgh, 2007), this text covers IC50 for 47 molecules.

Where only a bound is given, the exact number is not on record here.

The assay deals with Gag-Pol polyprotein (Human immunodeficiency virus type 1 group M subtype B (isolate HXB2), UniProt P04585). In words: HIV-1 RT RNase H inhibitor potency, dose response, biochemical, probe assessment (AID 652). The settings on record: pH 8; 23 °C.

For orientation: IC50 means the point on the concentration scale where inhibition reaches its midpoint. For `CCCSc1nc2c(cnn2-c2ccc(Cl)cc2)c(=O)[nH]1` [MLS000091828], the IC50 is 9.64 µM.

`CC(C)Sc1nc2sc3c(c2c2nnc(SCC(=O)NCc4ccco4)n12)CCCC3` [MLS000082957]: half-maximal inhibition (IC50) required 3.01 µM.

`Clc1ccccc1-c1nn2c(-c3ccncc3)nnc2s1` [6-(2-chlorophenyl)-3-(4-pyridinyl)[1,2,4]triazolo[3,4-b][1,3,4]thiadiazole]: the IC50 was 2.7 µM.

With `COc1cc(-c2nnc3sc(-c4cccnc4)nn23)cc(OC)c1OC` [6-(3-pyridinyl)-3-(3,4,5-trimethoxyphenyl)-[1,2,4]triazolo[3,4-b][1,3,4]thiadiazole], the IC50 is > 50 µM.

For `CCOc1ccccc1N1CSC2=C(C#N)C(c3c(OC)ccc4ccccc34)CC(=O)N2C1` (configuration not stated) [3-(2-ethoxyphenyl)-8-(2-methoxy-1-naphthalenyl)-6-oxo-2,4,7,8-tetrahydropyrido[2,1-b][1,3,5]thiadiazine-9-carbonitrile], the half-inhibitory concentration (IC50) was 2.18 µM.

Molecule `Cc1noc(C)c1CSc1nc2cc(S(=O)(=O)N3CCOCC3)ccc2o1` [2-[(3,5-dimethyl-1,2-oxazol-4-yl)methylsulfanyl]-5-morpholin-4-ylsulfonyl-1,3-benzoxazole] returned an IC50 of 2.3 µM.

Take `CC(C)CNC(=O)c1c(N)n(N=Cc2ccccn2)c2nc3ccccc3nc12` [2-amino-N-(2-methylpropyl)-1-(2-pyridinylmethylideneamino)-3-pyrrolo[3,2-b]quinoxalinecarboxamide]: 9.34 µM corresponded to half-maximal inhibition (IC50).

Molecule `CC(C)(C)C1=Nn2c(nnc2-c2ccccn2)SC1` [6-tert-butyl-3-(2-pyridinyl)-7H-[1,2,4]triazolo[3,4-b][1,3,4]thiadiazine] displayed an IC50 of 7.22 µM.

`c1ccc(Cc2nnc3sc(-c4ccncc4)nn23)cc1` [3-(phenylmethyl)-6-pyridin-4-yl-[1,2,4]triazolo[3,4-b][1,3,4]thiadiazole] showed a half-inhibitory concentration (IC50) of 1.81 µM.

As for `COc1ccc(-n2c(SCC(=O)N3CCCC3)nc3c([nH]c4ccccc43)c2=O)cc1` [SMR000018494], the half-inhibitory concentration (IC50) turned out to be 16.6 µM.

On to `CCC1CCCCN1S(=O)(=O)c1ccc(S(=O)(=O)N2CCN(S(=O)(=O)CC)CC2)cc1` (configuration not stated) [1-Ethanesulfonyl-4-[4-(2-ethyl-piperidine-1-sulfonyl)-benzenesulfonyl]-piperazine], for which the IC50 came to 12.3 µM.

For the molecule `CN1CSC2=C(C#N)C(c3cccc(OCc4ccccc4)c3)CC(=O)N2C1` (configuration not stated), the IC50 worked out at 10.6 µM.

On to `Nc1nnc(CSCc2ccc(F)cc2)s1` [5-[(4-fluorophenyl)methylsulfanylmethyl]-1,3,4-thiadiazol-2-amine], for which the IC50 is > 50 µM.

Turning to `CCc1ccccc1N1CSC2=C(C#N)C(c3ccccc3F)CC(=O)N2C1` (configuration not stated) [3-(2-ethylphenyl)-8-(2-fluorophenyl)-6-keto-2,4,7,8-tetrahydropyrido[2,1-b][1,3,5]thiadiazine-9-carbonitrile], inhibition was half-maximal at 1.22 µM (IC50).

As to `COc1ccccc1-c1nnc2n1N=C(c1ccc(O)c(O)c1)CS2` [(4E)-4-[3-(2-methoxyphenyl)-5H-[1,2,4]triazolo[3,4-b][1,3,4]thiadiazin-6-ylidene]-2-oxidanyl-cyclohexa-2,5-dien-1-one], the midpoint of inhibition, the IC50, lay at 1 µM.

Turning to `O=C(CCCn1c(SCC(=O)c2ccc(O)c(O)c2)nc2ccccc2c1=O)NCC1CCCO1` (configuration not stated) [4-[2-[2-(3,4-dihydroxyphenyl)-2-oxoethyl]sulfanyl-4-oxoquinazolin-3-yl]-N-(oxolan-2-ylmethyl)butanamide], inhibition was half-maximal at 0.879 µM (IC50).

Molecule `O=C(NC1CCS(=O)(=O)C1)c1c(NC(=O)C2COc3ccccc3O2)sc2c1CCCC2` (configuration not stated) [MLS000077500] registered an IC50 of 46.3 µM.

With `COc1ccc(OC)c(C=Nc2oc(-c3ccco3)c(-c3ccco3)c2C#N)c1` [MLS000068778], the IC50 is 4.02 µM.

`Cc1cc(NC(=O)CSc2ccc(-c3nc4cc(C)c(C)cc4[nH]3)cn2)no1` [2-[5-(5,6-Dimethyl-1H-benzoimidazol-2-yl)-pyridin-2-ylsulfanyl]-N-(5-methyl-isoxazol-3-yl)-acetamide] returned an IC50 of 16.7 µM.

The molecule `COc1ccc(N2CCN(Cc3cc(=O)oc4cc(C)c(Cl)c(C)c34)CC2)cc1` [6-chloranyl-4-[[4-(4-methoxyphenyl)piperazin-1-yl]methyl]-5,7-dimethyl-chromen-2-one] had an IC50 of 3.86 µM.

Molecule `Cc1sc2nc(SCC(=O)NCc3ccco3)n(CCc3ccccc3)c(=O)c2c1C` [2-(5,6-Dimethyl-4-oxo-3-phenethyl-3,4-dihydro-thieno[2,3-d]pyrimidin-2-ylsulfanyl)-N-furan-2-ylmethyl-acetamide] had a concentration for half-maximal inhibition (IC50) of 3.86 µM.

`Cc1cccc(N2CCN(C(=O)Cn3sc4nc(C)cc(C)c4c3=O)CC2C)c1` (configuration not stated) [2-[2-keto-2-[3-methyl-4-(m-tolyl)piperazino]ethyl]-4,6-dimethyl-isothiazolo[5,4-b]pyridin-3-one] gave a 50% inhibitory concentration (IC50) of 4.28 µM.

For `O=C(c1ccc2c3c(cccc13)C(=O)N(O)C2=O)N1CCCCC1` [2-hydroxy-6-(piperidine-1-carbonyl)benzo[de]isoquinoline-1,3-dione], the IC50 came out at 4.19 µM.

`CC(C)(C)c1ccc(-c2nnc3sc(-c4ccncc4)nn23)cc1` [3-(4-tert-butylphenyl)-6-(4-pyridinyl)[1,2,4]triazolo[3,4-b][1,3,4]thiadiazole] showed an IC50 of 6.18 µM.

`O=c1cc(CN2CCN(c3ccccc3)CC2)c2cc(O)c(-c3ccccc3)cc2o1` [6-hydroxy-7-phenyl-4-[(4-phenyl-1-piperazinyl)methyl]-1-benzopyran-2-one] displayed an IC50 of 5.01 µM.

`c1ccc2c(c1)ncn2Cc1nnc2sc(-c3ccc4c(c3)OCO4)nn12` [3-(1-benzimidazolylmethyl)-6-(1,3-benzodioxol-5-yl)-[1,2,4]triazolo[3,4-b][1,3,4]thiadiazole] yielded an IC50 of 1.23 µM.

`CCOc1ccc(S(=O)(=O)Nc2cc(Sc3nnc[nH]3)c3oc(=O)sc3c2)cc1` [4-ethoxy-N-[2-oxo-7-(1H-1,2,4-triazol-5-ylsulfanyl)-1,3-benzoxathiol-5-yl]benzenesulfonamide] yielded an IC50 of 2.53 µM.

For `Cc1nn2c(-c3cccc(NC(=O)CSc4nc5ccccc5o4)c3)nnc2c2ccccc12` [2-(1,3-benzoxazol-2-ylsulfanyl)-N-[3-(6-methyl-[1,2,4]triazolo[3,4-a]phthalazin-3-yl)phenyl]acetamide], the midpoint of inhibition, the IC50, lay at 3.71 µM.

Molecule `CN(c1ccccc1)c1ccc(C=c2s/c(=C(/C#N)C(=O)C(C)(C)C)n(Cc3ccco3)c2=O)cc1` [2-[3-(furan-2-ylmethyl)-5-[[4-(N-methylanilino)phenyl]methylidene]-4-oxo-1,3-thiazolidin-2-ylidene]-4,4-dimethyl-3-oxopentanenitrile] returned an IC50 of 2.01 µM.

`CCOC(=O)N(c1ccccc1)P1(=S)OCCO1` [MLS000090301] displayed a 50% inhibitory concentration (IC50) of 3.25 µM.

Molecule `C=CCn1c(SCC(=O)c2ccc(O)c(O)c2)nnc1-c1ccccc1OC` [1-(3,4-dihydroxyphenyl)-2-[[5-(2-methoxyphenyl)-4-prop-2-enyl-1,2,4-triazol-3-yl]sulfanyl]ethanone] came in with an IC50 of 2.57 µM.

On to `Cc1ccccc1OCc1nc(-c2ccc(NC(=O)c3ccc4c(c3)OCO4)cc2)no1` [MLS000047257], for which the midpoint of inhibition, the IC50, lay at 4.58 µM.

On to `O=C(O)/C=C/c1ccc(O)c(O)c1` [3,4-Dihydroxycinnamate, XVII], for which the IC50 is > 50 µM.

Consider `CCn1c2ccccc2c2nc3cc(S(=O)(=O)N4CCOCC4)ccc3nc21` [4-(6-ethylindolo[2,3-b]quinoxalin-2-yl)sulfonylmorpholine], for which it took 1.02 µM to reach half-maximal inhibition (IC50).

As to `O=c1ccc2cc3c([nH]c4ccc(Br)cc43)oc-2c1O` [9-bromo-4-hydroxy-6H-[1]benzopyrano[2,3-b]indol-3-one], the concentration for half-maximal inhibition (IC50) is 1.49 µM.

Molecule `Cc1ccc(/C=C/C2=Cc3c(sc(NC(=O)CSc4nnc(N)[nH]4)c3C#N)C(C)(C)C2)o1` [2-[(5-azanyl-1H-1,2,4-triazol-3-yl)sulfanyl]-N-[3-cyano-7,7-dimethyl-5-[(E)-2-(5-methylfuran-2-yl)ethenyl]-6H-1-benzothiophen-2-yl]ethanamide] displayed an IC50 of 0.9 µM.

Consider `O=C1CC(c2ccccc2)Cc2nc(N3CCc4ccccc43)ncc21` (configuration not stated) [2-(2,3-dihydroindol-1-yl)-7-phenyl-7,8-dihydro-6H-quinazolin-5-one], for which 5.87 µM corresponded to half-maximal inhibition (IC50).

`COc1ccccc1N1CSC2=C(C#N)C(c3ccc(SC)cc3)CC(=O)N2C1` (configuration not stated) [3-(2-methoxyphenyl)-8-(4-methylsulfanylphenyl)-6-oxidanylidene-2,4,7,8-tetrahydropyrido[2,1-b][1,3,5]thiadiazine-9-carbonitrile] gave an IC50 of 2.59 µM.

Turning to `O=C(O)c1cc(S(=O)(=O)Nc2ccc3oc(=O)sc3c2)ccc1O` [2-hydroxy-5-[(2-keto-1,3-benzoxathiol-5-yl)sulfamoyl]benzoic acid], the half-maximal inhibitory concentration (IC50) was determined as 7.39 µM.

`Cc1cc(C)c2c(=O)n(CC(=O)NCCCN3CCOCC3)sc2n1` [2-(3-keto-4,6-dimethyl-isothiazolo[5,4-b]pyridin-2-yl)-N-(3-morpholinopropyl)acetamide] gave an IC50 of 9.4 µM.

The molecule `COc1ccc(N2CCN(Cc3cc(=O)oc4cc5c(cc34)CCCC5)CC2)cc1` [4-[[4-(4-methoxyphenyl)-1-piperazinyl]methyl]-6,7,8,9-tetrahydrobenzo[g][1]benzopyran-2-one] came in with an IC50 of 4.35 µM.

`COc1ccc(N2CCN(Cc3cc(=O)oc4cc(-c5ccccc5)c(O)cc34)CC2)cc1` [4-[[4-(4-methoxyphenyl)piperazin-1-yl]methyl]-6-oxidanyl-7-phenyl-chromen-2-one] yielded an IC50 of 3.86 µM.

In turn, `O=C(O)c1ccc2c(c1)NC(=O)C(N1CCCC1)S2` (configuration not stated) [3-keto-2-pyrrolidino-4H-1,4-benzothiazine-6-carboxylic acid] showed an IC50 of 3.69 µM.

In the case of `CC(C)c1nnc(NC(=O)c2c(O)n3c4c(cccc4c2=O)CCC3)s1` [1-Hydroxy-3-oxo-6,7-dihydro-3H,5H-pyrido[3,2,1-ij]quinoline-2-carboxylic acid (5-isopropyl-[1,3,4]thiadiazol-2-yl)-amide], inhibition was half-maximal at 14.9 µM (IC50).

`Cc1sc(NC(=O)c2oc3ccccc3c2C)c(C#N)c1C` [MLS000065828] yielded an IC50 of 10.8 µM.

Consider `COc1ccc(S(=O)(=O)Nc2ccc(O)c3ccccc23)cc1` [4-methoxy-N-(4-oxidanylnaphthalen-1-yl)benzenesulfonamide], for which the midpoint of inhibition, the IC50, lay at 4.07 µM.

`c1c2c(cc3sc(N4CCOCC4)nc13)OCO2` [6-(4-morpholinyl)-[1,3]dioxolo[4,5-f][1,3]benzothiazole] showed an IC50 of 3.59 µM.
